Patent US20230272012A1, “PEPTIDES AND METHODS OF USE” (REALTA LIFE SCIENCES, INC., priority 2020, published 2023)
“Also recorded” adds a separate entry of the source. Bridge positions count the residues as written; N and C are the ends. Square brackets hold non-standard residues; d marks the D form. Ends that are not written are not given here. Peptide text beside a SMILES is read from it. R8 = C=CCCCCCC[C@@](C)(N)C(=O)O; S5 = C=CCCC[C@](C)(N)C(=O)O; Sar = CNCC(=O)O

How the values were obtained:
[1] = Total Antioxidant Capacity (TAC) assay; conditions: highest peptide concentration 1.5 mM
Experimental: As previously reported, the TAC (Total Antioxidant Capacity) Assay (Cell Biolabs, Inc, San Diego, Calif.) was used to measure the antioxidant capacity of the PIC1 variants based on the reduction of copper (II) to copper (I). The kit protocol was performed per the manufacturer's recommendations.
The antioxidant properties for the PIC1 variants were evaluated in a Total Antioxidant Capacity (TAC) assay, as previously reported. Total antioxidant activity over a range of peptide concentrations were determined for the stapled and the D-amino acid peptides based on the PA-I8Sar and PA-C9Sar backbones (FIG. 8A-8D), with the activity of the highest peptide concentration reported (1.5 mM) (FIGS. 4A and B, respectively). […] For the D-amino acid variants, there was variation in the amount of antioxidant activity with the peptides having similar, slightly lower and slightly higher levels of total antioxidant capacity. In contrast, stapled peptides (PA-0135 through -0140) as well as combination of stapled and D-amino acid peptides had reduced total antioxidant capacity (FIG. 4A).

C1q = target: T1, C1q (Homo sapiens, UniProt P02745+P02746+P02747); assay: C1q binding ELISA-type assay; conditions: half-maximal binding from binding curves
T1 construct: purchased Complement Technology (Tyler, Tex.)
T1 sequence (P02745 23-245): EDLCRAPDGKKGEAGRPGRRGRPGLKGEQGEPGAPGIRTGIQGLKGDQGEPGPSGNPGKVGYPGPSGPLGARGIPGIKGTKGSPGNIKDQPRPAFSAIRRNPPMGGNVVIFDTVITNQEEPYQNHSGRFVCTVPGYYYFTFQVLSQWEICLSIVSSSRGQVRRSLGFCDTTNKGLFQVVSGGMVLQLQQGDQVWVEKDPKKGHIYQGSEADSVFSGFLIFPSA
T1 sequence (P02746 28-253): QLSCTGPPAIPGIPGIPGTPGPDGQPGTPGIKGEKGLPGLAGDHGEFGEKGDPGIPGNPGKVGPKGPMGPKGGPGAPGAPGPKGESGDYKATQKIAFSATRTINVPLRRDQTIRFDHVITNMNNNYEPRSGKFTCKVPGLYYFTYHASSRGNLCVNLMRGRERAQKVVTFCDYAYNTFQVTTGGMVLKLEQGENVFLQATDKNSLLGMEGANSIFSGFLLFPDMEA
T1 sequence (P02747 29-245): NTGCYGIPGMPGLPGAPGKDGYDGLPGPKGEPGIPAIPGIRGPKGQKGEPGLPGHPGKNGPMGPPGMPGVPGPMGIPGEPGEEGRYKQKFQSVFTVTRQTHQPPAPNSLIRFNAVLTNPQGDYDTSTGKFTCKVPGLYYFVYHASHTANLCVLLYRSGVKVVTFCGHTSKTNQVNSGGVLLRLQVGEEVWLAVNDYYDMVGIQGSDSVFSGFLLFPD
Experimental: The C1q binding assay was performed as previously described. Briefly, an Immunlon-2 HB ELISA plate was coated with 1 μg/ml C1q in bicarbonate buffer overnight at 4° C. The plates were washed with PBS-T (phosphate buffered saline+0.1% Tween) and then blocked with 1% gelatin/PBS for 2 hours at room temperature. After washing, the plates were incubated with the peptides starting at 2.5 mg/ml and then serially diluted in 1% gelatin/PBS for 1 hour at room temperature followed by washing. Plates were then probed with rabbit antibody raised against the lead peptide […] (SEQ ID NO: 2) that lacked PEGylation at 1:1000 in 1% gelatin/PBS for 1 hour at room temperature followed by a goat anti-rabbit HRP (Sigma Aldrich, St Louis, Mo.) at 1:1,000 in 1% gelatin/PBS for 1 hour at room temperature with a washing step in between. After addition of TMB substrate solution to the wells, the reaction was stopped using 1N H2SO4, and the plate read on a BioTek Synergy HT plate reader at 450 nm.
The astrovirus capsid protein and the PIC1 molecules derived from it inhibit classical complement pathway activation by binding to the pattern recognition molecule C1q. The inventors next tested peptide variant binding to C1q in an ELISA-type assay in which C1q is used as the capture substrate and bound peptide detected with a rabbit polyclonal antibody against the peptide portion of PA-dPEG24 ([…]-d24; SEQ ID NO: 3). Binding curves were derived for the stapled and D-amino acid peptides based on the PA-I8Sar and PA-C9Sar (FIG. 6A-6D) backbone, from which half-maximal binding concentrations were calculated (FIGS. 2A and B, respectively). […] For the D-amino acid variants, all peptides in which C1q binding was detected, had variable but increased binding to C1q compared to PA-I8Sar (FIG. 2A). For the peptides based on the PA-C9Sar backbone, with the exception of PA-0148, C1q was bound to the same degree or greater than the parent peptide (FIG. 2B).
The inventors also assessed the ability of RLS-0127* and RLS-0133* to inhibit MPO activity as determined by inhibition of oxidation of TMB in a plate-based assay. […] Additionally, the inventors assessed the ability of RLS-0127* and RLS-0133* to bind C1q in a plate-based assay in which C1q is coated on the plate and increasing amounts of the peptides are added, followed by primary antibody to the peptides and secondary antibody conjugated to HRP. The plate was then incubated with TMB to give a […] signal that is detected at a wavelength of 450 nm in a plate reader.

[2] = ABO incompatibility hemolytic assay of complement activity (CH50-type); type: cell-based, human; conditions: peptide 0.8 mg/ml (~0.5 mM); read-out: decrease of ABO hemolysis compared to PA-I8Sar
Experimental: FIG. 1A-1B show PIC1 peptides' inhibition of complement activation in an ABO incompatibility assay. […] Inhibition of ABO incompatibility hemolysis in a CH50-type assay. Peptides are at a final concentration of 0.5 mM. Values are represented as a percent of the positive control, which consists of human O sera and AB red blood cells in GVBS^++ buffer. Data are the means of n=3 independent experiments±SEM.
For hemolytic complement assays, human red blood cells (RBCs) from type AB donors were purified, washed, and standardized to 1.0×10^9 cells/ml, as previously described. Human sera from type O donors at a 15% final concentration was combined with 0.5 mM of the peptides and the volume was brought up to 0.2 ml with GVBS^++ and 5.0×10^7 RBCs. The samples were incubated for 1 hour at 37° C. and then spun at 3,000 rpm for 5 minutes and the supernatant was collected and read at 412 nm. Values are represented as a percent of the positive control, which consists of human O sera and AB red blood cells in GVBS^++ buffer.
To assess the extent to which the peptide variants inhibit antibody-initiated complement activation, an ABO incompatibility ex vivo assay was utilized in which purified erythrocytes from a ‘type AB+’ donor are incubated with sera from a ‘type O’ subject containing anti-A and anti-B antibodies. Peptides were tested at a concentration of 0.8 mg/ml (˜0.5 mM). […] D-amino acid variants PA-0127 and PA-0133 decreased ABO hemolysis by 20% (P value=0.083) and 25% (P value=0.076), respectively. […]

human neutrophils = assay: NETosis assay (free DNA, PicoGreen); type: cell-based; conditions: peptide 2 mM; neutrophils stimulated with PMA and H2O2
Experimental: Free DNA as a marker for NET formation was measured by PicoGreen as previously described. Briefly, 2.0×10^6 human neutrophils in 96-well plates were stimulated with 12 nM PMA and 0.05% H2O2 in RPMI with or without the indicated peptide variants (2 mM) for 2.5 hr in a 37° C. humified incubator supplemented with 5% CO2, allowing NETosis to occur. Neutrophils in RPMI alone served as a negative control. Fifty units of […] (Fisher) were added to each well to allow for digestion of released extracellular DNA for 10 min at 37° C. The preparation was then aliquoted into an adjacent well and mixed 1:1 with prepared PICO green reagent (Fisher). The fluorescence was then quantified on a BioTek microplate reader at excitation 485 nm/emission 528 nm.

complement activity = assay: Hemolytic assay of plasma after IV infusion into rats; type: in vivo, rat; conditions: IV in Wistar rats; early time points at the highest dose
Experimental: Male Wistar rats with indwelling jugular catheters were administered PA-0117, -0127, -0130, and -0133 with groups of three animals receiving 20, 200 and 400 mg/kg of the compound as a single, bolus, IV infusion. A control group of rats received an infusion of saline IV. At various time points after infusion (0.5, 2, 5, 20, 60, 120, 240, 480, 1440 minute) an aliquot of blood was drawn and plasma isolated and frozen at −70° C. pending analysis. Animals were sacrificed after the terminal blood draw and a gross necropsy performed.
PA-0117 could not be analyzed as no functional complement activity was obtained from the plasma samples. […] PA-0117 was analyzed in a C1q target acquisition assay (C1q binding assay) as described in Example 1 (FIG. 9). […] PA-0127 and -0130 levels were determined by coating the plate with the plasma samples and directly detecting the peptides by rabbit antibody raised against PA-0020 (peptide sequence […]; SEQ ID NO: 57) (FIGS. 10B and 11B). […] PA-0133 could not be detected by the available antibodies.

IALR8LEPI(Sar)CS5ERAA (IAL[R8]LEPI[Sar]C[S5]ERAA; bridges not given here; also: R8/S5 4-11 may or may not be stapled) [PA-0147]
total antioxidant capacity compared with PA-C9Sar [1]: maintained similar activity

IALILS5P(Sar)CS5QERAA (IALIL[S5]P[Sar]C[S5]QERAA; staple 6-10) [PA-0119]
binding to C1q compared with PA-I8Sar (C1q): markedly increased binding to C1q

CC[C@H](C)[C@H](N)C(=O)N[C@@H](C)C(=O)N[C@@H](CC(C)C)C(=O)N[C@H](C(=O)N[C@@H](CC(C)C)C(=O)N[C@@H](CCC(=O)O)C(=O)N1CCC[C@H]1C(=O)N(C)CC(=O)N[C@@H](CS)C(=O)N[C@@H](CS)C(=O)N[C@@H](CCC(N)=O)C(=O)N[C@@H](CCC(=O)O)C(=O)N[C@@H](CCCNC(=N)N)C(=O)N[C@@H](C)C(=O)N[C@H](C)C(=O)O)[C@@H](C)CC [PA-0133, IALILEP(Sar)CCQERAdA] (HELM PEPTIDE1{I.A.L.I.L.E.P.[Sar].C.C.Q.E.R.A.[dA]}$$$$V2.0)
decrease in ABO hemolysis compared to reference peptide [2]: 25% | reduction of free DNA (marker of NETosis) (human neutrophils): reduction in free DNA similar to that of the PA-I8Sar control; also recorded: ability to inhibit NET formation | inhibition of complement activity in the hemolytic assay of rat plasma (complement activity): inhibition of complement activity

IALILR8P(Sar)CCQES5AA (IALIL[R8]P[Sar]CCQE[S5]AA; bridges not given here; also: R8/S5 6-13 may or may not be stapled) [PA-0114]
total antioxidant capacity compared with PA-I8Sar [1]: reduction in total antioxidant capacity

CC[C@H](C)[C@H](N)C(=O)N[C@@H](C)C(=O)N[C@@H](CC(C)C)C(=O)N[C@H](C(=O)N[C@@H](CC(C)C)C(=O)N[C@@H](CCC(=O)O)C(=O)N1CCC[C@H]1C(=O)N(C)CC(=O)N[C@@H](CS)C(=O)N[C@@H](CS)C(=O)N[C@@]1(C)CCCC=CCCC[C@@](C)(C(=O)O)NC(=O)[C@H](C)NC(=O)[C@H](CCCNC(=N)N)NC(=O)[C@H](CCC(=O)O)NC1=O)[C@@H](C)CC [PA-0116, IALILEP(Sar)CCS5ERAS5] (H-IALILEP[Sar]CC[S5]ERA[S5]-OH; staple 11-15)
total antioxidant capacity compared with PA-I8Sar [1]: increased activity; also recorded: superior antioxidant activity
